Test results taken from PMC11992225, “Antibacterial compounds against non-growing and intracellular bacteria” (npj Antimicrobials and Resistance, 2025).
In brackets after ≈: the same amount, converted by molar mass. Where two headings read alike, the source gives them in different places.

How the values were obtained:
S. flexneri 5a M90T = experiment: MIC in tryptic soy broth, S. flexneri; assay type: cell-based, Shigella flexneri; settings: Shigella flexneri, 5AM90T, read-out: MIC (μM) TSB
Procedure, shortened: (§1)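 MICs come from microdilution in CA-MHB/40 mM HEPES pH 7.4 for the UPEC, Pseudomonas and Staphylococcus strains, and in TSB for Shigella. UPEC also tested in LPM/30 mM MES pH 5.5.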

P. aeruginosa DSM1117 = experiment: MIC, standard microdilution assay, growing P. aeruginosa; assay type: cell-based, Pseudomonas aeruginosa; settings: Pseudomonas aeruginosa, DSM1117, P. aeruginosa
Procedure, shortened: as §1

E. coli CFT073 (UPEC) = experiment: MIC, standard microdilution assay, growing UPEC; assay type: cell-based, Escherichia coli; settings: Escherichia coli, E. coli
Procedure, shortened: as §1

[1] = tested on: non-growing P. aeruginosa DSM1117; experiment: Dilution-regrowth assay (OD600, start-growth-time) on stationary-phase P. aeruginosa; assay type: cell-based, Pseudomonas aeruginosa; settings: Pseudomonas aeruginosa, DSM1117; P. aeruginosa; regrowth delay of non-growing bacteria, 1:4 CA-MHB pH 7.4, 24 h treatment, OD600 8 h after dilution; read-out: EC50
Procedure, shortened: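 Start-growth-time was taken as the point where OD600, recorded every 20 min at 37 °C over about 20 h of regrowth, passed 0.12. Before that, non-growing cultures in HEPES-buffered 1:4 CA-MHB (pH 7.4) were exposed for 24 h, with compounds at 20 μM in preliminary runs.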

[2] = tested on: intracellular S. flexneri 5a M90T in TC7 cells; experiment: microbe, parasite or virus in culture; assay type: cell-based, Shigella flexneri

CC1Sc2c(C(=O)O)c(=O)c3cc(F)c(N4CCNCC4)cc3n21 (stereo not shown) [Ulifloxacin]
MIC (S. flexneri 5a M90T): 0.0312 µM (≈ 0.0109 µg/mL)
MIC (P. aeruginosa DSM1117; 1:4 diluted CA-MHB pH 7.4, read-out: MIC (μM) 1:4 CA-MHB): 0.5 µM (≈ 0.175 µg/mL)
MIC (P. aeruginosa DSM1117; CA-MHB pH 7.4, read-out: MIC (μM) CA-MHB): 0.5 µM (≈ 0.175 µg/mL)
MIC (E. coli CFT073 (UPEC); LPM pH 5.5, read-out: MIC): 0.125 µM (≈ 0.0437 µg/mL)
MIC (E. coli CFT073 (UPEC); pH 7.4, CA-MHB, read-out: MIC (μM) CA-MHB): 0.025 µM (≈ 0.00873 µg/mL)
EC50 [1]: 0.082 µM
IC50 ([2]; Shigella flexneri, TC7, 14 h): 0.101 µM
Fluorescence intensity (RFU), Mean, 2 x MIC ([2]; TC7 cells infected with GFP-expressing S. flexneri, 14 h treatment, 2 x MIC): 6924.86 RFU
Fluorescence intensity (RFU), Mean, 4 x MIC ([2]; TC7 cells infected with GFP-expressing S. flexneri, 14 h treatment, 4 x MIC): 4362.58 RFU
Fluorescence intensity (RFU), Mean, 8 x MIC ([2]; TC7 cells infected with GFP-expressing S. flexneri, 14 h treatment, 8 x MIC): 3208.03 RFU
Fluorescence intensity (RFU), Mean, 16 x MIC ([2]; TC7 cells infected with GFP-expressing S. flexneri, 14 h treatment, 16 x MIC): 2720.44 RFU
Fluorescence intensity (RFU), Mean, 32 x MIC ([2]; TC7 cells infected with GFP-expressing S. flexneri, 14 h treatment, 32 x MIC): 2065.19 RFU
Fluorescence intensity (RFU), Mean, MIC ([2]; TC7 cells infected with GFP-expressing S. flexneri, 14 h treatment, MIC): 8271.31 RFU
